Laboratory results as given in the NIST ThermoML archive (doi:10.1021/je3010062).

Settings: 101.33 kPa, Liquid; for viscosity: Concentric cylinders viscometry; for mass density: Vibrating tube method; for electrical conductivity: syringe-type cell with a pair of platinum electrodes

CC[N+](C)(C)CCOCCOC.O=S(=O)([N-]S(=O)(=O)C(F)(F)F)C(F)(F)F
Settings	electrical conductivity [S/m]	mass density [kg/m3]	viscosity [mPa·s]
273.15 K	0.0681	1414.1	243.5
278.15 K	0.0936	1409.65	173.6
283.15 K	0.125	1404.97	127.5
288.15 K	0.162	1400.31	96.35
293.15 K	0.206	1395.68	74.27
298.15 K	0.257	1391.07	58.57
303.15 K	0.315	1386.49	47.19
313.15 K	0.451	1377.4	32.03
323.15 K	0.616	1368.39	22.89
333.15 K	0.81	1359.45	17.02
343.15 K	1.02	1350.57	13.14
353.15 K	1.27	1341.75	10.39
363.15 K	–	1332.98	8.433

CCCCCCC[N+](C)(C)CC.O=S(=O)([N-]S(=O)(=O)C(F)(F)F)C(F)(F)F
Settings	electrical conductivity [S/m]	mass density [kg/m3]	viscosity [mPa·s]
273.15 K	0.0157	1311.95	944.3
278.15 K	0.023	1307.78	634.1
283.15 K	0.0328	1303.56	437.8
288.15 K	0.0454	1299.38	310.5
293.15 K	0.0614	1295.2	225.7
298.15 K	0.081	1291	167.7
303.15 K	0.105	1286.82	127.6
313.15 K	0.167	1278.51	77.77
323.15 K	0.249	1270.28	50.63
333.15 K	0.353	1262.09	34.68
343.15 K	0.48	1253.97	24.84
353.15 K	0.631	1245.9	18.49
363.15 K	–	1237.87	14.18
